Test results as given in US11780832B2, “Lactivicin compounds, their preparation and use as antibacterial agents” (priority 2021, dated 2023).
≈ marks a conversion by molar mass, not a printed value.

Tests used:
Format in all cases: cell-based
[1] = tested on: Acinetobacter baumannii ATCC 19606; assay: MIC, CLSI broth microdilution; settings: ATCC19606
How it was run: (§1)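 CLSI broth microdilution with 2-fold serial dilutions over a final range of 16-0.0125 μg/mL. Final inoculum 5×10^5 CFU/mL, using genotyped ATCC or clinical isolates taken two subcultures from frozen stock.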

[2] = tested on: Enterobacter cloacae species complex NDM-1; assay: MIC, CLSI broth microdilution
How it was run: as §1

[3] = tested on: Escherichia coli CTX-M-15; assay: MIC, CLSI broth microdilution; settings: CTXM15
How it was run: as §1

[4] = tested on: Klebsiella aerogenes VIM-1, SHV-12; assay: MIC, CLSI broth microdilution
How it was run: as §1

[5] = tested on: Klebsiella oxytoca KPC-2, TEM-1; assay: MIC, CLSI broth microdilution; settings: KPC-2, TEM-1, read-out: MIC
How it was run: as §1

[6] = tested on: Klebsiella pneumoniae KPC-2; assay: MIC, CLSI broth microdilution; settings: KPC2
How it was run: as §1

[7] = tested on: Klebsiella pneumoniae KPC-3; assay: MIC, CLSI broth microdilution; settings: KPC3, KPC-3, read-out: MIC
How it was run: as §1

[8] = tested on: Klebsiella pneumoniae OXA-163, OXA-1_OXA-30, SHV-1, TEM-1; assay: MIC, CLSI broth microdilution
How it was run: (§2)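 Genotyped isolates from ATCC or clinical specimens were passaged twice from frozen stock and tested at 5×10^5 CFU/mL final inoculum. Compounds were 2-fold diluted to final 16-0.0125 μg/mL per CLSI broth microdilution.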

[9] = tested on: Klebsiella pneumoniae OXA-48, SHV-1; assay: MIC, CLSI broth microdilution
How it was run: as §2

[10] = tested on: Pseudomonas aeruginosa OprD negative; assay: MIC, CLSI broth microdilution
How it was run: as §2

[11] = tested on: Citrobacter freundii species complex Elevated AmpC; assay: MIC against Elevated AmpC producing strains, compound alone; settings: row r16
Method: (§3) Gram-negative and Gram-positive bacterial strains used during the in vitro minimum inhibitory concentration (MIC) determination were obtained either from the American Type Culture Collection (ATCC) or from clinical specimens. All strains were characterized genotypically and the respective antibiotic resistance markers for each strain were identified.
(§4) Isolates were sub-cultured onto appropriate media and stocked in skim milk at −80° C. Following two subcultures from frozen stock, in vitro antimicrobial susceptibility testing was performed using the Clinical and Laboratory Standards Institute (CLSI) broth microdilution method. Briefly, fresh cultures were suspended in culture media to give a final stock inoculum size of 5×10^7 colony forming units per milliliter of broth (CFU/mL). Test compounds were prepared at a stock solution concentration equal to 128 μg/mL, then diluted to give a final an initial working concentration of 32 μg/mL. 100 μL of the stock solutions were added to the first wells in a 96-well plate and were then diluted using a 2-fold dilution method to give a range of 32-0.025 μg/mL. 100 μL of the bacterial suspensions were then added to the 96-well plates to give a final working inoculum size of 5×10^5 CFU/mL. The final compound concentration range was 16-0.0125 μg/mL. […] MICs for comparator agents were determined using custom-designed, in-house prepared 96-well broth microdilution panels.

[12] = tested on: Enterobacter cloacae species complex Elevated AmpC; assay: as above
Method: as §3, §4

[13] = tested on: Escherichia coli Elevated AmpC; assay: as above
Method: as §3, §4

[14] = tested on: Escherichia coli CMY-DHA; assay: MIC against CMY-DHA producing strains, compound alone
Method: as §3, §4

[15] = tested on: Klebsiella pneumoniae CMY-DHA; assay: as above; settings: row r32
Method: as §3, §4

[16] = tested on: Proteus mirabilis CMY-DHA; assay: as above; settings: row r36
Method: as §3, §4

[17] = tested on: Citrobacter freundii species complex Elevated AmpC; assay: Synergistic activity: MIC in the presence of Avibactam; settings: row r16, in the presence of Avibactam @ 4 μg/mL
Method: as §4
(§5) The same method used to test the activity of the claimed compounds was used to determine their synergistic activity when combined with a β-lactamase inhibitor except that either a fixed concentration or fixed ratio of a β-lactamase inhibitor was added to the 96-well plates prior to adding the bacteria cultures. Synergistic activity was defined as the reduction of MIC of a given compound when tested using the β-lactamase inhibitor versus testing the compound in the absence of a β-lactamase inhibitor.

[18] = tested on: Enterobacter cloacae species complex Elevated AmpC; assay: as above
Method: as §4, §5

[19] = tested on: Escherichia coli CMY-DHA; assay: as above
Method: as §4, §5

[20] = tested on: Escherichia coli Elevated AmpC; assay: as above
Method: as §4, §5

[21] = tested on: Klebsiella pneumoniae CMY-DHA; assay: as above; settings: row r32, in the presence of Avibactam @ 4 μg/mL
Method: as §4, §5

[22] = tested on: Proteus mirabilis CMY-DHA; assay: as above; settings: row r36, in the presence of Avibactam @ 4 μg/mL
Method: as §4, §5

For `CC(C)(O/N=C(\C(=O)N[C@@H]1C(=O)N2C(C(=O)[O-])=C(C[n+]3ccccc3)CS[C@H]12)c1csc(N)n1)C(=O)O` [Ceftazidime, ceftazidime, reference compound], the MIC [1] was 8 mg/L (≈ 14.6 µM), the MIC [2] was over 32 mg/L and the MIC [3] was 4 mg/L (≈ 7.32 µM). The MIC [4] was over 32 mg/L, the MIC [5] was 1 mg/L (≈ 1.83 µM) and the MIC [6] was over 32 mg/L. The MIC [7] was over 32 mg/L, the MIC [8] was over 32 mg/L and the MIC [9] was 0.5 mg/L (≈ 0.915 µM). The MIC [10] was 2 mg/L (≈ 3.66 µM), the MIC [11] was over 32 mg/L and the MIC [12] was 16 mg/L (≈ 29.3 µM). The MIC ([12]; strain of row r7) was over 32 mg/L, the MIC ([12]; strain of row r20) was 16 mg/L (≈ 29.3 µM) and the MIC ([13]; strain of row r10) was 8 mg/L (≈ 14.6 µM). It also gave an MIC ([13]; strain of row r11) of 8 mg/L (≈ 14.6 µM), an MIC ([13]; strain of row r12) of 8 mg/L (≈ 14.6 µM) and an MIC ([13]; strain of row r13) of 4 mg/L (≈ 7.32 µM). For the same molecule, the MIC ([13]; strain of row r14) was 16 mg/L (≈ 29.3 µM), the MIC ([13]; strain of row r15) was 16 mg/L (≈ 29.3 µM) and the MIC ([14]; strain of row r26) was 32 mg/L (≈ 58.5 µM). For the same molecule, the MIC ([14]; strain of row r27) was 32 mg/L (≈ 58.5 µM), the MIC ([14]; strain of row r28) was 8 mg/L (≈ 14.6 µM) and the MIC ([14]; strain of row r29) was 32 mg/L (≈ 58.5 µM). The MIC ([14]; strain of row r30) was 4 mg/L (≈ 7.32 µM), the MIC ([14]; strain of row r31) was 32 mg/L (≈ 58.5 µM) and the MIC ([14]; strain of row r34) was over 32 mg/L. For the same molecule, the MIC ([14]; strain of row r35) was over 32 mg/L, the MIC [15] was 16 mg/L (≈ 29.3 µM) and the MIC [16] was 16 mg/L (≈ 29.3 µM). For the same molecule, the MIC [17] was 0.25 mg/L, the MIC ([18]; in the presence of Avibactam @ 4 μg/mL) was 0.25 mg/L and the MIC ([18]; strain of row r7, in the presence of Avibactam @ 4 μg/mL) was 0.5 mg/L. For the same molecule, the MIC ([18]; strain of row r20, in the presence of Avibactam @ 4 μg/mL) was 0.03 mg/L, the MIC ([19]; strain of row r26, in the presence of Avibactam @ 4 μg/mL) was 0.5 mg/L and the MIC ([19]; strain of row r27, in the presence of Avibactam @ 4 μg/mL) was 0.5 mg/L. The MIC ([19]; strain of row r28, in the presence of Avibactam @ 4 μg/mL) was 0.06 mg/L, the MIC ([19]; strain of row r29, in the presence of Avibactam @ 4 μg/mL) was 0.12 mg/L and the MIC ([19]; strain of row r30, in the presence of Avibactam @ 4 μg/mL) was “<=0.015 μg/mL”. It also gave an MIC ([19]; strain of row r31, in the presence of Avibactam @ 4 μg/mL) of 0.12 mg/L, an MIC ([19]; strain of row r34, in the presence of Avibactam @ 4 μg/mL) of 0.5 mg/L and an MIC ([19]; strain of row r35, in the presence of Avibactam @ 4 μg/mL) of 0.25 mg/L. It also gave an MIC ([20]; strain of row r10, in the presence of Avibactam @ 4 μg/mL) of 0.12 mg/L, an MIC ([20]; strain of row r11, in the presence of Avibactam @ 4 μg/mL) of 0.06 mg/L and an MIC ([20]; strain of row r12, in the presence of Avibactam @ 4 μg/mL) of 0.12 mg/L. For the same molecule, the MIC ([20]; strain of row r13, in the presence of Avibactam @ 4 μg/mL) was 0.12 mg/L, the MIC ([20]; strain of row r14, in the presence of Avibactam @ 4 μg/mL) was 0.12 mg/L and the MIC ([20]; strain of row r15, in the presence of Avibactam @ 4 μg/mL) was 0.5 mg/L. It also gave an MIC [21] of 0.12 mg/L and an MIC [22] of 0.12 mg/L.
